# Key:
# LEFCH = experiment: Post-emergence foliar-applied weed control, greenhouse (Example I); type: in vivo, Leptochloa chinensis (L.) Nees
# Excerpt: Evaluation of Post-emergence Foliar-Applied Herbicidal Mixtures for Weed Control in Direct Seeded Rice
# Seeds or nutlets of the desired test plant species were planted in a soil matrix prepared by mixing a loam or sandy loam soil (e.g., 28.6 percent silt, 18.8 percent clay, and 52.6 percent sand, with a pH of about 5.8 and an organic matter content of about 1.8 percent) and calcareous grit in an 80 to 20 ratio. The soil matrix was contained in plastic pots with a volume of 1 quart and a surface area of 83.6 square centimeters (cm^2). When required to ensure good germination and healthy plants, a fungicide treatment and/or other chemical or physical treatment was applied. The plants were grown for 8-22 days in a greenhouse with an approximate 14 h photoperiod which was maintained at about 29° C. during the day and 26° C. during the night. Nutrients (Peters Excel® 15-5-15 5-Ca 2-Mg and iron chelate) were applied in the irrigation solution as needed and water was added on a regular basis. Supplemental lighting was provided with overhead metal halide 1000-Watt lamps as necessary. The plants were employed for testing when they reached the first through fourth true leaf stage. […]
# (§1) Treatment requirements were calculated based upon the rates being tested, the concentration of active ingredient or acid equivalent in the formulation, and a 12 mL application volume at a rate of 187 L/ha.
# For treatments comprised of formulated compounds, measured amounts of compounds were placed individually in 25 mL glass vials and diluted in a volume of 1.25% (v/v) Agri-Dex® crop oil concentrated to obtain 12× stock solutions. […]
# For treatments comprised of formulated and technical compounds, weighed amounts of the technical materials were placed individually in 25 mL glass vials and dissolved in a volume of 97:3 v/v acetone/DMSO to obtain 12× stock solutions, and measured amounts of the formulated compounds were placed individually in 25 mL glass vials and diluted in a volume of 1.5% (v/v) crop oil concentrate or water to obtain 12× stock solutions. […]
# XANST = experiment: Pre-emergence soil-applied weed control, greenhouse (Example III); type: in vivo, Xanthium strumarium L.
# Excerpt: Evaluation of Pre-emergence Soil-Applied Herbicidal Mixtures for Weed Control
# Seeds or nutlets of the desired test plant species were planted in a soil matrix prepared by mixing a loam soil (32 percent silt, 23 percent clay, and 45 percent sand, with a pH of about 6.5 and an organic matter content of about 1.9 percent) and calcareous grit in an 80 to 20 ratio. The soil matrix was contained in plastic pots with a volume of 1 quart and a surface area of 83.6 square centimeters (cm^2).
# Treatments consisted of the benzyl ester of 4-amino-3-chloro-5-fluoro-6-(4-chloro-2-fluoro-3-methoxy-phenyl)pyridine-2-carboxylic acid (compound A) formulated as an SC (suspension concentrate) and various herbicidal components alone and in combination. Forms of compound A were applied on an acid equivalent basis.
# Other herbicidal components were applied on an acid equivalent or active ingredient basis and included the 4-hydroxyphenyl pyruvate dioxygenase (HPPD)-inhibiting herbicide, isoxaflutole, formulated as Balance Pro®.
# as §1
# For treatments comprised of formulated compounds, measured amounts of compounds were placed individually in 25 mL glass vials and diluted in a volume of 1.25% (v/v) Agri-Dex® crop oil concentrate (COC) to obtain 12× stock solutions. […] Application solutions were prepared by adding an appropriate amount of each stock solution (e.g., 1 mL) and diluted to the appropriate final concentrations with the addition of 10 mL of an aqueous mixture of 1.25% (v/v) COC so that the final spray solutions contained 1.25% (v/v) COC.
# All stock solutions and applications solutions were visually inspected for compound compatibility prior to application. Spray solutions were applied to the soil with an overhead Mandel track sprayer equipped with a 8002E nozzles calibrated to deliver 187 L/ha over an application area of 0.503 m^2 at a spray height of 18 inches (46 cm) above average pot height. Control pots were sprayed in the same manner with the solvent blank.
# The treated and control pots were placed in a greenhouse and top watered as needed. When required to ensure good germination and healthy plants, a fungicide treatment and/or other chemical or physical treatment was applied. […] After approximately 4 weeks, the condition of the test plants as compared with that of the untreated plants was determined visually and scored on a scale of 0 to 100 percent where 0 corresponds to no injury or growth inhibition and 100 corresponds to complete kill. […]
Compound,Visual Weed Control (%) - 21 DAA LEFCH Obs (LEFCH; 17.5 gae/ha),Visual Weed Control (%) - 21 DAA LEFCH Obs (LEFCH; 35 gae/ha),Visual Weed Control (%) - 32 DAA XANST Obs (XANST; 8 gae/ha),Visual Weed Control (%) - 32 DAA XANST Obs (XANST; 16 gae/ha),Visual Weed Control (%) - 32 DAA XANST Obs (XANST; 32 gae/ha)
"COc1c(Cl)ccc(-c2nc(C(=O)O)c(Cl)c(N)c2F)c1F [Compound A Acid, 4-amino-3-chloro-6-(4-chloro-2-fluoro-3-methoxyphenyl)-5-fluoropyridine-2-carboxylic acid]",10%,60%,–,–,–
"COc1c(Cl)ccc(-c2nc(C(=O)OCc3ccccc3)c(Cl)c(N)c2F)c1F [Compound A Benzyl Ester, benzyl ester of 4-amino-3-chloro-5-fluoro-6-(4-chloro-2-fluoro-3-methoxy-phenyl)pyridine-2-carboxylic acid]",–,–,33%,35%,65%

# From US8841233B2, “Herbicidal compositions comprising 4-amino-3-chloro-5-fluoro-6-(4-chloro-2-fluoro-3-methoxyphenyl) pyridine-2-carboxylic acid or a derivative thereof and 4-hydroxyphenyl-pyruvate dioxygenase (HPPD) inhibitors” (Dow Agrosciences LLC, priority 2012, dated 2014)
